# Test results taken from ChEMBL document CHEMBL5727136, “Inhibitors of RPN11” (2018).
# Experiments:
# [1] = (§1) Biochemical Assay: In brief, this Rpn11 bioassay employs a fluorescent polarization readout based on the ability of the 26S proteasome to cleave the protein substrate including four tandem ubiquitin proteins fused to a peptide having a unique cysteine labeled with a fluorophore. Cleavage of this substrate by Rpn11 at the junction between the fourth ubiquitin and the peptide, releases the low molecular weight fluorescent peptide. Accordingly, inhibition of fluorescence correlates with inhibition of Rpn11. Inhibition is reported as the half maximal inhibitory concentration (IC50) for the candidate compound.The catalytic JAB1/MPN/Mov34 metalloenzyme (JAMM) motif of Rpn11 is found in 7 different human proteins including the Csn5 subunit of the COP9 signalosome, AMSH, AMSH-LP, the BRCC36 subunit of BRISC, MPND, and MYSM1. All of these enzymes cleave the isopeptide linkage that joins ubiquitin (or the ubiquitin-like protein Nedd8 in the case of Csn5) to a second molecule of ubiquitin or to a substrate. The conserved JAMM domain has the consensus sequence EXnHS/THX7SXXD, in which the histidine (His) and aspartic acid (Asp) residues bind the Zn2+ ion and the fourth coordination site is occupied by a water molecule that is engaged in hydrogen bonding with a conserved glutamic acid (Glu). The Zn2+ acts as a Lewis acid and increases the nucleophilic character of the bound water enough to allow hydrolytic cleavage of the isopeptide bond.
# [2] = as §1; remark: listed apart in the source
# [3] = as §1; remark: listed apart in the source
Compound,IC50 [1],IC50 [2],IC50 [3]
O=C(NCc1ccccc1)c1cnc2c(S)cccc2c1,15 µM,11 µM,1.1 µM
O=C(NCc1nccs1)c1cnc2c(S)cccc2c1,7.8 µM,,
CNC(=O)c1cnc2c(S)cccc2c1,4.8 µM,68 µM,
O=C(NCCc1nccs1)c1cnc2c(S)cccc2c1,,30 µM,
O=C(NCc1ccc2c(c1)OCO2)c1cnc2c(S)cccc2c1,< 0.2 µM,7 µM,0.9 µM
O=C(NCc1ccc(F)cc1)c1cnc2c(S)cccc2c1,0.85 µM,18 µM,
NC(=O)c1cnc2c(S)cccc2c1,1.2 µM,,1 µM
O=C(Nc1nccs1)c1cnc2c(S)cccc2c1,3.3 µM,,
O=C(NCCc1ccco1)c1ccnc2c(S)cccc12,2.9 µM,,

# The remaining lines, values ahead:
IC50 [1],IC50 [2],IC50 [3],Compound
1.7 µM,6.9 µM,,O=C(NCCc1ccco1)c1cnc2c(S)cccc2c1
6.8 µM,41.3 µM,4.6 µM,O=C(NCC1CCCO1)c1cnc2c(S)cccc2c1 (stereo unspecified)
16.7 µM,,,O=C(NCc1ccccn1)c1cnc2c(S)cccc2c1
3.52 µM,,,O=C(NCc1cccnc1)c1cnc2c(S)cccc2c1
0.9 µM,,0.9 µM,O=C(NCc1ccco1)c1cnc2c(S)cccc2c1
0.6 µM,0.5 µM,,COc1ccc(CNC(=O)c2cnc3c(S)cccc3c2)cc1
,,0.8 µM,O=C(NCc1ccc(N2CCOCC2)cc1)c1cnc2c(S)cccc2c1
25.4 µM,,6.4 µM,O=C(NCCN1CCOCC1)c1cnc2c(S)cccc2c1
1.3 µM,4 µM,0.3 µM,O=C(NCCc1cccs1)c1cnc2c(S)cccc2c1
1.3 µM,16 µM,0.8 µM,O=C(NCc1cccs1)c1cnc2c(S)cccc2c1
